Among the data in ChEMBL document CHEMBL3758099, “Melatonergic ligands: Design, synthesis and pharmacological evaluation of novel series of naphthofuranic derivatives” (Eur J Med Chem, 2016) are EC50, Ki and Ratio Ki values, retold here.

The target of experiment [1] is T1, Melatonin receptor type 1B (Homo sapiens, UniProt P49286).
T1 sequence (P49286 whole entry): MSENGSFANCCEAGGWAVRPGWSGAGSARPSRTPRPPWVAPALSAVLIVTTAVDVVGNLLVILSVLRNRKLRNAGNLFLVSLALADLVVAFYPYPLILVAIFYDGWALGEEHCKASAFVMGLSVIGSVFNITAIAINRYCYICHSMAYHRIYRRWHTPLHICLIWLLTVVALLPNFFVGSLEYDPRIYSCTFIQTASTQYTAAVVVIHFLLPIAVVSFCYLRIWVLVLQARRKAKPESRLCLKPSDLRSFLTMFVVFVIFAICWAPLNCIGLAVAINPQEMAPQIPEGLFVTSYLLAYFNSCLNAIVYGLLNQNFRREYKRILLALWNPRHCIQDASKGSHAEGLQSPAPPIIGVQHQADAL
The experiment can be described thus: Intrinsic activity at human MT2 receptor expressed in CHO cell membranes after 1 hr by [35S]GTPgammaS binding assay. The experiment is classed as functional. A general note: GTPγS is a poorly hydrolysed GTP analogue; its binding reports G protein activation.

Experiment [2] concerns the target T2, Melatonin receptor type 1A (Homo sapiens, UniProt P48039). The experiment is described as follows: Intrinsic activity at human MT1 receptor expressed in CHO cell membranes after 1 hr by [35S]GTPgammaS binding assay. The experiment is classed as functional.
Experiment [3] concerns the target T1, Melatonin receptor type 1B. The experiment is described as follows: Displacement of 2-[125I]iodomelatonin from human MT2 receptor expressed in CHO cell membranes after 120 mins.
For experiment [4], the target named is T2, Melatonin receptor type 1A. The experiment is described as follows: Displacement of 2-[125I]iodomelatonin from human MT1 receptor expressed in CHO cell membranes after 120 mins.
The target in experiment [5] is T3, 5-hydroxytryptamine receptor 2C (Homo sapiens, UniProt P28335).
T3 sequence (P28335 whole entry): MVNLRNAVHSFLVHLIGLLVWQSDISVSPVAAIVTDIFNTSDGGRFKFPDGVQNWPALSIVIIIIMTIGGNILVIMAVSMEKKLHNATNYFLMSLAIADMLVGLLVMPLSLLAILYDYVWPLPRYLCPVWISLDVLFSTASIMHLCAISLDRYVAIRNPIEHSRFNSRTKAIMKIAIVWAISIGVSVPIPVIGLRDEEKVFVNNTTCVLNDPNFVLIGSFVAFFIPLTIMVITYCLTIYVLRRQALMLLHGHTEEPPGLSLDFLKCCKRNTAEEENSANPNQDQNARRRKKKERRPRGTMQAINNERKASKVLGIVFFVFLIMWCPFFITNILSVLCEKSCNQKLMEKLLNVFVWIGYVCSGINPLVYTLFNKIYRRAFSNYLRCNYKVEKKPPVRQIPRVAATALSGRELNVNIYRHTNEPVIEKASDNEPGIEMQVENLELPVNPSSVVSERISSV
The experiment can be described thus: Binding affinity to 5-HT2C receptor (unknown origin).

The species entered for experiment [6] is Homo sapiens. The experiment is described as follows: Selectivity ratio of Ki for human MT1 receptor to Ki for human MT2 receptor.

T2 sequence (P48039 whole entry): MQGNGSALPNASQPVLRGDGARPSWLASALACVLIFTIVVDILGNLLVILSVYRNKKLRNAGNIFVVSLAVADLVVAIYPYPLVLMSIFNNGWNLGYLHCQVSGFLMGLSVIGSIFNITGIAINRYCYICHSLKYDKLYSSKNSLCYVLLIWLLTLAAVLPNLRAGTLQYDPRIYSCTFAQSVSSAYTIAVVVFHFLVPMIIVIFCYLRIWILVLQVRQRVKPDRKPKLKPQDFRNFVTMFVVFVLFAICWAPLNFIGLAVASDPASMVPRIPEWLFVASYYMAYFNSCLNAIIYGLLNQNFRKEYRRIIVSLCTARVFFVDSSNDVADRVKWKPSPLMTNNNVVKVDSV

As a reminder, the EC50 is the concentration at which the effect is half-maximal. High values mean weaker potency, low ones greater potency. One may read the Ki as a measure of affinity in units of concentration, obtained from inhibition or displacement. Read a high Ki as lower affinity. Take `COc1ccc2ccc3occ(CCNC(=O)C4CC4)c3c2c1`: the results for the EC50 in experiment [1] and in experiment [2] were 3.2 nM and 5.2 nM, respectively. Moreover, the values for the Ki in experiment [3], in experiment [4] and in experiment [5] were 13.3 nM, 236 nM and over 1000 nM, respectively.

Consider `CCNC(=S)NCc1cc2c(ccc3ccc(OC)cc32)o1`, for which the Ki in experiment [3] came to 7 nM; in experiment [4], 140 nM; in experiment [5], 730 nM.

As for `CCNC(=O)NCc1cc2c(ccc3ccc(OC)cc32)o1`, the EC50 is 10 nM in experiment [1] and over 10000 nM in experiment [2]. Besides, the Ki in experiment [3] is 4.2 nM; in experiment [4], 17 nM; in experiment [5], over 10000 nM.

Regarding `COc1ccc2ccc3occ(CCNC(C)=O)c3c2c1`, the EC50 in experiment [1] amounted to 0.7 nM; in experiment [2], 4.6 nM. In addition, the Ki in experiment [3] is 0.09 nM; in experiment [4], 2.8 nM; in experiment [5] it was 140 nM. Further, the Ratio Ki in experiment [6] turned out to be 31.

As for `CCNC(=O)NCCc1coc2ccc3ccc(OC)cc3c12`, the EC50 in experiment [1] amounted to 6.2 nM; in experiment [2] it was 75 nM. Further, the Ki in experiment [3] is 226 nM; in experiment [4] it was 157 nM; in experiment [5], over 1000 nM.

With `COc1ccc2ccc3oc(CNC(=O)C4CC4)cc3c2c1`, the figures for the EC50 in experiment [1] and in experiment [2] were 0.98 nM and 1 nM, respectively. Besides, the Ki in experiment [3] was 0.6 nM; in experiment [4] it was 1.9 nM; in experiment [5], over 10000 nM.

In turn, `CNC(=O)NCc1cc2c(ccc3ccc(OC)cc32)o1` registered a Ki in experiment [5] of over 10000 nM.

As to `COc1ccc2ccc3occ(CNC(C)=O)c3c2c1`, the figures for the EC50 in experiment [1] and in experiment [2] were 1.4 nM and 4.8 nM, respectively. In addition, the Ki in experiment [3] was 0.7 nM; in experiment [4], 4.6 nM; in experiment [5], over 10000 nM.

As for `COc1ccc2ccc3occ(CNC(=O)CF)c3c2c1`, the figures for the EC50 in experiment [1] and in experiment [2] were 3.4 nM and 29 nM, respectively. Further, the Ki in experiment [3] was 2.1 nM; in experiment [4] it was 9.9 nM; in experiment [5], over 10000 nM.

`CNC(=S)NCc1cc2c(ccc3ccc(OC)cc32)o1`: the Ki in experiment [3] was 0.8 nM; in experiment [4], 43 nM; in experiment [5] it was over 10000 nM.

Turning to `CCNC(=O)NCCc1cc2c(ccc3ccc(OC)cc32)o1`, the figures for the Ki in experiment [3], in experiment [4] and in experiment [5] were 46 nM, 210 nM and over 10000 nM, respectively.

For `COc1ccc2ccc3occ(CNC(=O)C4CC4)c3c2c1`, the EC50 in experiment [1] is 8.8 nM; in experiment [2] it was 1 nM. The Ki in experiment [3] is 15 nM; in experiment [4] it was 20 nM; in experiment [5], over 10000 nM.

Take `COc1ccc2ccc3oc(CCNC(=O)C4CC4)cc3c2c1`: the results for the EC50 in experiment [1] and in experiment [2] were 5.8 nM and over 10000 nM, respectively. Further, the inhibitory constant (Ki) was 11 nM in experiment [3], 73 nM in experiment [4] and over 10000 nM in experiment [5].

Turning to `COc1ccc2ccc3oc(CCNC(C)=O)cc3c2c1`, the EC50 in experiment [1] and in experiment [2] was over 10000 nM in each case. For the same compound, the Ki in experiment [3] is 1.7 nM; in experiment [4] it was 10 nM; in experiment [5] it was over 10000 nM.

In the case of `COc1ccc2ccc3oc(CNC(C)=O)cc3c2c1`, the half-maximal effective concentration (EC50) in experiment [1] came out at 0.98 nM; in experiment [2], 7.7 nM. In addition, the Ki in experiment [3] was 0.4 nM; in experiment [4] it was 2.1 nM; in experiment [5] it was over 10000 nM.

As for `COc1ccc2ccc3occ(CNC(=O)C(C)C)c3c2c1`, the EC50 in experiment [1] came out at 8.8 nM; in experiment [2], 8.1 nM. Moreover, the Ki in experiment [3] was 24 nM; in experiment [4], 158 nM; in experiment [5], over 10000 nM.

For `COc1ccc2ccc3oc(CNC(=O)CF)cc3c2c1`, the values for the EC50 in experiment [1] and in experiment [2] were 1.1 nM and 9.5 nM, respectively. In addition, the results for the inhibition constant (Ki) in experiment [3], in experiment [4] and in experiment [5] were 0.7 nM, 5.7 nM and over 10000 nM, respectively.
